Consider one compound from patent US6667161B1, “Chromogenic substrates of sialidase of bacterial, viral, protozoa, and vertebrate origin and methods of making and using the same” (Ibbex, Inc., priority 1997, dated 2003).

The target of test [1] is purified recombinant bacterial sialidase from Salmonella T. (Salmonella typhimurium, UniProt P29768). The test can be described thus: Biochemical evaluation of chromogenic substrate with bacterial sialidase. The following applies: substrate ca. 0.7 mM, 30 minutes.
Test [2] deals with viral sialidase from whole influenza virus A1PR/8/34 (Influenza A virus, UniProt P03468). Kind of test: Biochemical evaluation of chromogenic substrate with viral sialidase. The following applies: substrate ca. 0.7 mM, 30 minutes. Here is the method: Biochemical evaluation for the chromogenic product of viral sialidase substrate compounds. Sialidase can be obtained from, for example, purified recombinant bacterial sialidase from Salmonella T., whole influenza virus, or culture medium containing secreted human sialidase from the 2CFSME cell line. The sialidase preparation is added to a buffer of sodium acetate (0.05 to 0.5 M; pH 5.0-6.0), and the substrate compound is provided at about 0.2-1.0 mM concentration. It should be noted that numerous other examples of buffer solution may be used, including organic acids such as citrate buffers, for example, as well as inorganic buffers, including potassium, sodium, calcium, and other such salts thereof. […] The color change is readily visible. The color change can be quantitated spectrophotometrically by measuring the light absorption of the reaction mixture. […]
E. Biochemical Evaluation of a Chromogenic Substrate Product with Bacterial Sialidase and with Viral Sialidase. […] The reaction progress was quantitated by measuring the light absorption of the reaction mixture. The light absorption was measured with a spectrophotometer at 517 nm with a 1 cm path cell. In the experiment conducted with bacterial sialidase, the absorbance was measured as 2.448. In the experiment conducted with viral sialidase, the absorbance was measured as 1.168. […]

The mark [3] stands for this setting: pH 6.0, 37° C., after addition of sodium hydroxide (pH>11.0).

viral sialidase from whole influenza virus A1PR/8/34, sequence (P03468 whole entry, looked up): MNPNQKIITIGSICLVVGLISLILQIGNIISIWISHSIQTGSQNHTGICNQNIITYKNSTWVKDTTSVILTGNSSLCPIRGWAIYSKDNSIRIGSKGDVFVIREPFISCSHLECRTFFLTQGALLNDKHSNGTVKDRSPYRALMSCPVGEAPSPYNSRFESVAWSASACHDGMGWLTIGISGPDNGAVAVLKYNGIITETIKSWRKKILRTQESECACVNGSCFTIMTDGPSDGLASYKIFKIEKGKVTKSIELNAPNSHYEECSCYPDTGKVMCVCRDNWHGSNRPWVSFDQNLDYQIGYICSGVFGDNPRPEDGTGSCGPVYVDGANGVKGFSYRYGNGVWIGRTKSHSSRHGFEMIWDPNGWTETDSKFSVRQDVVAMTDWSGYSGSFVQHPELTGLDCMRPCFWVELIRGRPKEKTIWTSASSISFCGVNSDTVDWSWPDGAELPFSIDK
purified recombinant bacterial sialidase from Salmonella T., sequence (P29768 whole entry): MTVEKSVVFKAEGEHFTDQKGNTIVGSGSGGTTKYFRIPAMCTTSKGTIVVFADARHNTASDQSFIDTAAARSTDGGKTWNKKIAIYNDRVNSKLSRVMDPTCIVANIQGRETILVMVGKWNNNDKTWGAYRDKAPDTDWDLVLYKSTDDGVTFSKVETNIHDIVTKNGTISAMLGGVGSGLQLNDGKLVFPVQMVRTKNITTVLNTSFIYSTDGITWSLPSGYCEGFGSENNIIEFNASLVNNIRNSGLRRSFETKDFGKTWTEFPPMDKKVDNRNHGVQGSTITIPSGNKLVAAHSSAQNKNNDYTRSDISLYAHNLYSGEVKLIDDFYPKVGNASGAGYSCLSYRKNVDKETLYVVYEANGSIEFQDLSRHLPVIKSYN

Take `COC(=O)C1(Oc2cc(C)c(C3(c4cc(C(C)C)c(O)cc4C)OC(=O)c4ccccc43)cc2C(C)C)CC(OC)C(NC(C)=O)C([C@H](N)[C@H](O)CO)O1` (stereo partly shown) [Compound 9c]: the “absorbance (light absorption of the reaction mixture)” value in test [1] (517 nm, 1 cm path cell, potassium acetate 0.5 M pH 6.0, 37° C., then sodium hydroxide 1.0 M) amounted to 2.448; in test [2] (517 nm, 1 cm path cell, potassium acetate 0.5 M pH 6.0, 37° C., then sodium hydroxide 1.0 M, reaction not allowed to proceed to completion), 1.168. Further, the visible color change entry in test [1] (setting [3]) and in test [2] (setting [3]) was “color change to blue was readily visible” each time.
